Reference: patent US10597388B2, “Pyridazinone herbicides” (FMC CORPORATION, priority 2014, dated 2020)

How the values were obtained:
Assay in all cases: Test A greenhouse herbicide test, pre- and postemergence
Assay type in all cases: in vivo
[1] = tested on: barnyardgrass (Echinochloa crus-galli)
Procedure, shortened: (§1)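 Visual injury ratings, 0 (no effect) to 100 (complete control), versus untreated plants after roughly 10 d in a greenhouse. Compounds, formulated in a surfactant-containing non-phytotoxic solvent, were sprayed on loam–sand soil after sowing (pre) or on one- to two-leaf plants 2–10 cm tall (post).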

corn (Zea mays) = settings: Postemergence
Procedure, shortened: as §1

[2] = tested on: foxtail, giant (giant foxtail, Setaria faberii)
Procedure, shortened: as §1

kochia (Kochia scoparia) = tested on: kochia (Kochia scoparia)
Procedure, shortened: as §1

[3] = tested on: pigweed (Amaranthus retroflexus)
Procedure, shortened: as §1

[4] = tested on: ragweed (common ragweed, Ambrosia elatior)
Procedure, shortened: as §1

[5] = tested on: ryegrass, Italian (Italian ryegrass, Lolium multiflorum)
Procedure, shortened: as §1

[6] = tested on: wheat (Triticum aestivum); settings: Postemergence
Procedure, shortened: as §1

[7] = Postemergence, 125 g ai/ha, 0 to 100 scale where 0 is no effect and 100 is complete control
[8] = Postemergence, 500 g ai/ha, visual rating after approx. 10 d, 0 to 100 scale (0 no effect, 100 complete control)
[9] = Preemergence, 125 g ai/ha, 0 to 100 scale where 0 is no effect and 100 is complete control
[10] = Preemergence, 500 g ai/ha, 0 to 100 scale where 0 is no effect and 100 is complete control
[11] = 125 g ai/ha, 0 to 100 scale where 0 is no effect and 100 is complete control
[12] = 500 g ai/ha, visual rating after approx. 10 d, 0 to 100 scale (0 no effect, 100 complete control)

| Structure (SMILES) | Plant response rating, Barnyardgrass [1, 7] | Plant response rating, Barnyardgrass [1, 8] | Barnyardgrass plant response rating [1, 9] | Plant response rating, Barnyardgrass [1, 10] | Plant response rating, Corn (corn (Zea mays); [11]) | Plant response rating, Corn (corn (Zea mays); [12]) | Plant response rating, Foxtail, Giant [2, 7] | Plant response rating, Foxtail, Giant [2, 8] | Foxtail, Giant plant response rating [2, 9] | Plant response rating, Foxtail, Giant [2, 10] | Plant response rating, Kochia (kochia (Kochia scoparia); [7]) | Plant response rating, Kochia (kochia (Kochia scoparia); [8]) | Kochia plant response rating (kochia (Kochia scoparia); [9]) | Plant response rating, Kochia (kochia (Kochia scoparia); [10]) | Plant response rating, Pigweed [3, 7] | Plant response rating, Pigweed [3, 8] | Pigweed plant response rating [3, 9] | Plant response rating, Pigweed [3, 10] | Plant response rating, Ragweed [4, 7] | Plant response rating, Ragweed [4, 8] | other results |
| --- | --- | --- | --- | --- | --- | --- | --- | --- | --- | --- | --- | --- | --- | --- | --- | --- | --- | --- | --- | --- | --- |
| CC(=O)Oc1c(Cl)nn(C)c(=O)c1-c1c(C)sc2ccc(Cl)cc12 [Compound 116] | 20 | 90 | 70 | 100 | 0 | 30 | 70 | 100 | 80 | 100 | 30 | 60 | 30 | 100 | 70 | 100 | 90 | 90 | 70 | 100 | Ragweed plant response rating [4, 9]: 90; Plant response rating, Ragweed [4, 10]: 90; Plant response rating, Ryegrass, Italian [5, 7]: 90; Plant response rating, Ryegrass, Italian [5, 8]: 100; Ryegrass, Italian plant response rating [5, 9]: 80; Plant response rating, Ryegrass, Italian [5, 10]: 100; Plant response rating, Wheat [6, 11]: 20; Plant response rating, Wheat [6, 12]: 50 |
| Cc1nn(C)c(=O)c(-c2c(C)sc3ccc(C(F)(F)F)cc23)c1O [Compound 121] | 30 | 50 | 20 | 50 | 20 | 20 | 60 | 80 | 80 | 80 | 70 | 80 | 0 | 30 | 90 | 90 | 100 | 100 | 90 | 90 | Ragweed plant response rating [4, 9]: 60; Plant response rating, Ragweed [4, 10]: 80; Plant response rating, Ryegrass, Italian [5, 7]: 90; Plant response rating, Ryegrass, Italian [5, 8]: 100; Ryegrass, Italian plant response rating [5, 9]: 80; Plant response rating, Ryegrass, Italian [5, 10]: 90; Plant response rating, Wheat [6, 11]: 0; Plant response rating, Wheat [6, 12]: 20 |
| COC(=O)Oc1c(C)nn(C)c(=O)c1-c1ccc(F)c2ccccc12 [Compound 130] | 60 | 90 | 30 | 100 | 0 | 30 | 70 | 90 | 30 | 90 | 100 | 100 | 60 | 100 | 100 | 100 | 90 | 100 | 70 | 100 | Ragweed plant response rating [4, 9]: 60; Plant response rating, Ragweed [4, 10]: 90; Plant response rating, Ryegrass, Italian [5, 7]: 100; Plant response rating, Ryegrass, Italian [5, 8]: 100; Ryegrass, Italian plant response rating [5, 9]: 100; Plant response rating, Ryegrass, Italian [5, 10]: 100; Plant response rating, Wheat [6, 11]: 0; Plant response rating, Wheat [6, 12]: 30 |
| CCC(=O)Oc1c(OC)nn(C)c(=O)c1-c1c(C)sc2ccc(Cl)cc12 [Compound 131] | 0 | 20 | 0 | 40 | 0 | 10 | 50 | 80 | 80 | 90 | 60 | 80 | 0 | 20 | 60 | 90 | 80 | 100 | 100 | 90 | Ragweed plant response rating [4, 9]: 40; Plant response rating, Ragweed [4, 10]: 60; Plant response rating, Ryegrass, Italian [5, 7]: 90; Plant response rating, Ryegrass, Italian [5, 8]: 90; Ryegrass, Italian plant response rating [5, 9]: 90; Plant response rating, Ryegrass, Italian [5, 10]: 90; Plant response rating, Wheat [6, 11]: 0; Plant response rating, Wheat [6, 12]: 20 |
| CC(=O)Oc1c(C)nn(C)c(=O)c1-c1c(C)sc2ccc(C(F)(F)F)cc12 [Compound 132] | 0 | 30 | 0 | 70 | 0 | 10 | 60 | 80 | 70 | 90 | 50 | 80 | 60 | 90 | 60 | 90 | 90 | 100 | 100 | 100 | Ragweed plant response rating [4, 9]: 80; Plant response rating, Ragweed [4, 10]: 90; Plant response rating, Ryegrass, Italian [5, 7]: 100; Plant response rating, Ryegrass, Italian [5, 8]: 100; Ryegrass, Italian plant response rating [5, 9]: 90; Plant response rating, Ryegrass, Italian [5, 10]: 90; Plant response rating, Wheat [6, 11]: 0; Plant response rating, Wheat [6, 12]: 20 |
| CCC(=O)Oc1c(C)nn(C)c(=O)c1-c1ccc(Br)c2ccccc12 [Compound 134] | 20 | 60 | 20 | 90 | 20 | 50 | 20 | 80 | 50 | 90 | 100 | 100 | 70 | 100 | 90 | 100 | 100 | 100 | 100 | 100 | Ragweed plant response rating [4, 9]: 80; Plant response rating, Ragweed [4, 10]: 90; Plant response rating, Ryegrass, Italian [5, 7]: 100; Plant response rating, Ryegrass, Italian [5, 8]: 100; Ryegrass, Italian plant response rating [5, 9]: 100; Plant response rating, Ryegrass, Italian [5, 10]: 100; Plant response rating, Wheat [6, 11]: 30; Plant response rating, Wheat [6, 12]: 30 |
